Source: ChEMBL document CHEMBL1158228, “Anti-HIV triterpene acids from Geum japonicum” (J Nat Prod, 1996)

target: Protease (Human immunodeficiency virus 1) (UniProt Q9YQ12); assay: Inhibition of HIV1 recombinant protease expressed in Escherichia coli DH5alpha at 17.9 ug/mL after 2 hrs by HPLC assay
Sequence (Q9YQ12 as listed by the source): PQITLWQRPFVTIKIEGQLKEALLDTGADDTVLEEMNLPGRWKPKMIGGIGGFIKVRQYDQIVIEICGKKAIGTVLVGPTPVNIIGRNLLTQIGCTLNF

Structure (SMILES) | inhibition [%]
C[C@@H]1CC[C@]2(C(=O)O)CC[C@]3(C)C(=CC[C@@H]4[C@@]5(C)C[C@@H](O)[C@@H](O)C(C)(C)[C@@H]5CC[C@]43C)[C@@H]2[C@]1(C)O | 0
C[C@@H]1CC[C@]2(C(=O)O)CC[C@]3(C)C(=CC[C@@H]4[C@@]5(C)C[C@@H](O)C(=O)C(C)(C)[C@@H]5CC[C@]43C)[C@@H]2[C@]1(C)O | 72
C[C@@H]1CC[C@]2(C(=O)O)CC[C@]3(C)C(=CC[C@@H]4[C@@]5(C)CC[C@@H](O)C(C)(C)[C@@H]5CC[C@]43C)[C@@H]2[C@]1(C)O | 42
C[C@H]1[C@H](C)CC[C@]2(C(=O)O)CC[C@]3(C)C(=CC[C@@H]4[C@@]5(C)CC[C@H](O)C(C)(C)[C@@H]5CC[C@]43C)[C@H]12 | 85
C[C@@H]1CC[C@]2(C(=O)O)CC[C@]3(C)C(=CC[C@@H]4[C@@]5(C)C[C@@H](O)[C@H](O)C(C)(C)[C@@H]5CC[C@]43C)[C@@H]2[C@]1(C)O | 49
CC1(C)CC[C@]2(C(=O)O)CC[C@]3(C)C(=CC[C@@H]4[C@@]5(C)C[C@@H](O)[C@H](O)C(C)(C)[C@@H]5CC[C@]43C)[C@@H]2C1 | 100
